Experimental findings from patent publication US6900319B2, “Thrombin inhibitors” (Abbott GmbH & Co. KG, priority 1995, dated 2005) are described below.

Usually melting point stands for the temperature, or range, at which the solid turns liquid. `CC(=O)O.N=C(N)c1ccc(CNC(=O)[C@H]2CCCN2C(=O)C(O)C2CCCCC2)cc1` (stereo partly shown) [Example 3, (D)-2-Cyclohexyl-2-hydroxyacetylproline p-amidinobenzylamide Acetate]: the melting point lay within 216 to 218 °C.
